From patent US20080009418A1, “Selective Inhibitors” (Alchemia LTD., priority 2004, published 2008)

Key:
[1] = molecular target: T1, Human μ-opioid (MOP) (Homo sapiens, UniProt P35372); test: Radioligand binding, human μ-opioid (MOP) membranes, FlashPlate, [3H]-Naloxone; conditions: compound at 10 μM; for A7: inhibition of radioligand binding / A7: inhibition of radioligand binding, human μ-opioid (MOP): [3H]-Naloxone
T1 construct: purchased Perkin Elmer Biosignal
How it was run: (§1)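 Cloned human receptor membranes were coated onto FlashPlate wells and incubated with radioligand and compound (added from a 0.5 mM DMSO daughter plate) for 1 hour at room temperature in the dark. Scintillation counting gave percent inhibition, with DMSO defining total and reference ligand defining non-specific binding.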

[2] = molecular target: T2, Human Melanocortin (MC4) (Homo sapiens, UniProt P32245); test: Radioligand binding, human melanocortin MC4 membranes, FlashPlate, [125I]-NDP-αMSH; conditions: compound at 10 μM; for A4: inhibition of radioligand binding / A4: inhibition of radioligand binding, human melanocortin (MC4): [125I]-NDP-αMSH
T2 construct: purchased Perkin Elmer Biosignal
T2 sequence (P32245 whole entry): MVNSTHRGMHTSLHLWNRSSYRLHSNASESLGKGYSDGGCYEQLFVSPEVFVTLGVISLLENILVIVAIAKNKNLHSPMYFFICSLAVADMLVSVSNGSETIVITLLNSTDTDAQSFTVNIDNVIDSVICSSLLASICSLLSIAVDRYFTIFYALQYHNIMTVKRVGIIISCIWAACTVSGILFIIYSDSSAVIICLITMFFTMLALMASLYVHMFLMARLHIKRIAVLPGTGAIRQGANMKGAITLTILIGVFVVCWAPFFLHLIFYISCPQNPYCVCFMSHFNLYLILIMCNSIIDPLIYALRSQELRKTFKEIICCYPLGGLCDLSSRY
How it was run: as §1

[3] = molecular target: T3, Human neurokinin (NK1) (Homo sapiens, UniProt P25103); test: Radioligand binding, human neurokinin NK1 membranes, filtration, [125I]-Substance P; conditions: compound at 10 μM; for A8: inhibition of radioligand binding / A8: inhibition of radioligand binding, human neurokinin (NK1): [125I]-Substance P
T3 construct: purchased Perkin Elmer Biosignal
T3 sequence (P25103 whole entry): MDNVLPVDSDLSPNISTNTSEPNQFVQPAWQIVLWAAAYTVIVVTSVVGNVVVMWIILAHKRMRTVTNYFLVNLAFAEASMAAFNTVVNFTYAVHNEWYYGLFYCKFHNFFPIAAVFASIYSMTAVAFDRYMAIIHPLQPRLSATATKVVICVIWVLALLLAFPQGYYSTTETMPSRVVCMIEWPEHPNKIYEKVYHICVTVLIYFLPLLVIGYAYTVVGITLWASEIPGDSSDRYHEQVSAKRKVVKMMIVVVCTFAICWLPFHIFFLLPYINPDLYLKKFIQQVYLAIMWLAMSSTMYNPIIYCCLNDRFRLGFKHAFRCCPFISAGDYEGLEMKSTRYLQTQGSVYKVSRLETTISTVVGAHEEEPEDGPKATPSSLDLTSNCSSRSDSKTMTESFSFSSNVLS
How it was run: (§2)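 Percent inhibition of radioligand binding measured on recombinant human membranes: NK1 with [125I]-Substance P, KOP with [3H]-Diprenorphine. Incubation 1 h at room temperature, then harvest onto 0.3% PEI-soaked filters, cold Tris-HCl pH 7.4 washes and scintillation counting; non-specific binding from reference ligand wells.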

[4] = molecular target: T4, Human melanin-concentrating hormone (MCH1) (Homo sapiens, UniProt Q99705); test: Radioligand binding, human melanin-concentrating hormone MCH1 membranes, FlashPlate, [125I]-S36057; conditions: compound at 10 μM; for A6: inhibition of radioligand binding, human melanin-concentrating hormone (MCH1): [125I]-S36057
T4 construct: purchased Perkin Elmer Biosignal
T4 sequence (Q99705 whole entry): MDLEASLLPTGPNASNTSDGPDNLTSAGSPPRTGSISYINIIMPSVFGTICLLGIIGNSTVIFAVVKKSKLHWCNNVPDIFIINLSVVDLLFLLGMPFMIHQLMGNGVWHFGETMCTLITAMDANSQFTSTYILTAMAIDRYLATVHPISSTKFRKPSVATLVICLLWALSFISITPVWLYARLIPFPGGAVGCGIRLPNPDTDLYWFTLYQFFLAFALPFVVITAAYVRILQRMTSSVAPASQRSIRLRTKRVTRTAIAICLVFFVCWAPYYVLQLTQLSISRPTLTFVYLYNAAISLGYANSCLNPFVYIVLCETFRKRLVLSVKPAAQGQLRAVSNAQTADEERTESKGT
How it was run: as §1

[5] = molecular target: T5, Human Melanocortin (MC3) (Homo sapiens, UniProt P41968); test: Radioligand binding, human melanocortin MC3 membranes, FlashPlate, [125I]-NDP-αMSH; conditions: compound at 10 μM; for A3: inhibition of radioligand binding / A3: inhibition of radioligand binding, human melanocortin (MC3): [125I]-NDP-αMSH
T5 construct: purchased Perkin Elmer Biosignal
T5 sequence (P41968 whole entry): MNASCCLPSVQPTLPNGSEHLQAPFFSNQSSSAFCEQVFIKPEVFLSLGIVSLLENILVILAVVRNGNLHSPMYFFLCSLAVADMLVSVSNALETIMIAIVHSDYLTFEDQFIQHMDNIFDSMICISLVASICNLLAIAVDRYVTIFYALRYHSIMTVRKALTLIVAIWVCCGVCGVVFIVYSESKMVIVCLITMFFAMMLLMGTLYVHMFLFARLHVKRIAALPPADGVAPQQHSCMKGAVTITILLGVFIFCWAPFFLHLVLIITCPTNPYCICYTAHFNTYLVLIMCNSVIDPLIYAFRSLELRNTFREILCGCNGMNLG
How it was run: as §1

[6] = molecular target: T6, Mouse urotensin (mUR2) (Mus musculus, UniProt Q8VIH9); test: Radioligand binding, mouse urotensin mUR2 membranes, FlashPlate, [125I]-Urotensin II; conditions: compound at 10 μM; for A11: inhibition of radioligand binding / A11: inhibition of radioligand binding, mouse urotensin (mUR2): [125I]-Urotensin II
T6 construct: purchased Perkin Elmer Biosignal
T6 sequence (Q8VIH9 1-385): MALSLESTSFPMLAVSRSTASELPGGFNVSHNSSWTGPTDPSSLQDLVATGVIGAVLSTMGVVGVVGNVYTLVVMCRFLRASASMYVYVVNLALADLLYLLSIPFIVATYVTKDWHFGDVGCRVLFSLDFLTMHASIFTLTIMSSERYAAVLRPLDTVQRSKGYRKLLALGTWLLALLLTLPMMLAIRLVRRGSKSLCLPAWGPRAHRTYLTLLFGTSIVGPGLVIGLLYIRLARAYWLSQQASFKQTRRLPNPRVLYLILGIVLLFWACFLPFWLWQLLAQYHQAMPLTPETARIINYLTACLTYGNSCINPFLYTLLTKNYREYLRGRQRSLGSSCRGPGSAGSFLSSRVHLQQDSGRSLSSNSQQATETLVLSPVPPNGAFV
How it was run: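 Cloned mouse urotensin (mUR2) receptor membranes from Perkin Elmer Biosignal were immobilized in FlashPlate microplates using a proprietary coating. Each well got 19.5 μl buffer, then 0.5 μl of DMSO, reference ligand, or compound. Adding 5 μl of [125I]-Urotensin II, diluted to 5× final concentration in binding buffer, started binding. Plates were sealed with TopSeal-A and incubated 1 hour at room temperature in the dark. Wells were counted for 30 seconds each on a TopCount after a 60-second delay, and percentage inhibition was calculated.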

[7] = molecular target: T7, Human melanocortin (MC5) (Homo sapiens, UniProt P33032); test: Radioligand binding, human melanocortin MC5 membranes, FlashPlate, [125I]-NDP-αMSH; conditions: compound at 10 μM; for A5: inhibition of radioligand binding / A5: inhibition of radioligand binding, human melanocortin (MC5): [125I]-NDP-αMSH
T7 construct: purchased Perkin Elmer Biosignal
T7 sequence (P33032 whole entry): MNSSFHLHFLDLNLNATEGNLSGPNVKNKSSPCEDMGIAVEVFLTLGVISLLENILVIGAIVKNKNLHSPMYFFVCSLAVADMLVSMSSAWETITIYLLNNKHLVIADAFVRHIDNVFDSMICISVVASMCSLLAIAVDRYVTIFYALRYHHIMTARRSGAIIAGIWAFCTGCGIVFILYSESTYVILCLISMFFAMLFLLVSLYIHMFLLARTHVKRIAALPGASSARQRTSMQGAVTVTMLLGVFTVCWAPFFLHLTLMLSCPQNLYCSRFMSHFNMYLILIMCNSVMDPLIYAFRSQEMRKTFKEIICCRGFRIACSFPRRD
How it was run: as §1

[8] = molecular target: T8, Human δ-opioid (DOP) (Homo sapiens, UniProt P41143); test: Radioligand binding, human δ-opioid (DOP) membranes, FlashPlate, [3H]-Bremazocine; conditions: compound at 10 μM; for A1: inhibition of radioligand binding / A1: inhibition of radioligand binding, human δ-opioid (DOP): [3H]-Bremazocine
T8 construct: purchased Perkin Elmer Biosignal
T8 sequence (P41143 whole entry): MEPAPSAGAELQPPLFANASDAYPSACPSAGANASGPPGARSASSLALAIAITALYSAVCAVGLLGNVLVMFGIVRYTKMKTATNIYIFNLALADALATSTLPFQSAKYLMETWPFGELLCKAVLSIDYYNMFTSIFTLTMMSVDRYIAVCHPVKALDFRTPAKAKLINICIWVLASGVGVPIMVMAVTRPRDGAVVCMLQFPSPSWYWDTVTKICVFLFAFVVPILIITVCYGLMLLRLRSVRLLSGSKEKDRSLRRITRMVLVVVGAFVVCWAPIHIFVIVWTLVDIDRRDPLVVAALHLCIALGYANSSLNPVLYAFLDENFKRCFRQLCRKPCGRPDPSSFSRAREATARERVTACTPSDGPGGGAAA
How it was run: as §1

[9] = molecular target: T9, Human κ-Opioid (KOP) (Homo sapiens, UniProt P41145); test: Radioligand binding, human κ-opioid (KOP) membranes, filtration, [3H]-Diprenorphine; conditions: compound at 10 μM; for A2: inhibition of radioligand binding / A2: inhibition of radioligand binding, human κ-opioid (KOP): [3H]-Diprenorphine
T9 construct: purchased Perkin Elmer Biosignal
T9 sequence (P41145 whole entry): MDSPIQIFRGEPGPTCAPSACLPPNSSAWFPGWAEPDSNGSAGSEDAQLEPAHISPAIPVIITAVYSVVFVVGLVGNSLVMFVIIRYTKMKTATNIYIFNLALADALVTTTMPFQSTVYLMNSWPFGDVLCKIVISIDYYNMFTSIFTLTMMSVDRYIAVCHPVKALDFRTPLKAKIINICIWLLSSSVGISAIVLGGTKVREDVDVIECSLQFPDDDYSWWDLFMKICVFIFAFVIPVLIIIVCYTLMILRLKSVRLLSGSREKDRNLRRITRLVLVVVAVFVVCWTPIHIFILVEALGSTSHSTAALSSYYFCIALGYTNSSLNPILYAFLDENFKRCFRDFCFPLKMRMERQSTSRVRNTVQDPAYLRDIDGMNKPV
How it was run: as §2

[10] = molecular target: T10, Human opioid (ORL1) (Homo sapiens, UniProt P41146); test: Radioligand binding, human opioid ORL1 membranes, FlashPlate, [125I]-Nociceptin; conditions: compound at 10 μM; for A10: inhibition of radioligand binding / A10: inhibition of radioligand binding, human opioid (ORL1): [125I]-Nociceptin
T10 construct: purchased Perkin Elmer Biosignal
T10 sequence (P41146 whole entry): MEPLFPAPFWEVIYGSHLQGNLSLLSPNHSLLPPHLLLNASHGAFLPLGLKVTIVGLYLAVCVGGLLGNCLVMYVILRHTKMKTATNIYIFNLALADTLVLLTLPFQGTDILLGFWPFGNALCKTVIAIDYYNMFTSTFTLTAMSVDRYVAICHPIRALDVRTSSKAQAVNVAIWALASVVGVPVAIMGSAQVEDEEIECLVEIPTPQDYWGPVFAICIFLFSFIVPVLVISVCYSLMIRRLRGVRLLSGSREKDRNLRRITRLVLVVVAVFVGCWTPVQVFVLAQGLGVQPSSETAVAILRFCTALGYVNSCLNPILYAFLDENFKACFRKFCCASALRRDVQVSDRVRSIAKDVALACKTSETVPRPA
How it was run: as §1

[11] = molecular target: T11, Human neuropeptide Y (NPY-Y1) (Homo sapiens, UniProt P25929); test: Radioligand binding, human neuropeptide Y NPY-Y1 membranes, FlashPlate, [125I]-PYY; conditions: compound at 10 μM; for A9: inhibition of radioligand binding / A9: inhibition of radioligand binding, human neuropeptide Y (NPY-Y1): [125I]-PYY
T11 construct: purchased Perkin Elmer Biosignal
T11 sequence (P25929 1-384): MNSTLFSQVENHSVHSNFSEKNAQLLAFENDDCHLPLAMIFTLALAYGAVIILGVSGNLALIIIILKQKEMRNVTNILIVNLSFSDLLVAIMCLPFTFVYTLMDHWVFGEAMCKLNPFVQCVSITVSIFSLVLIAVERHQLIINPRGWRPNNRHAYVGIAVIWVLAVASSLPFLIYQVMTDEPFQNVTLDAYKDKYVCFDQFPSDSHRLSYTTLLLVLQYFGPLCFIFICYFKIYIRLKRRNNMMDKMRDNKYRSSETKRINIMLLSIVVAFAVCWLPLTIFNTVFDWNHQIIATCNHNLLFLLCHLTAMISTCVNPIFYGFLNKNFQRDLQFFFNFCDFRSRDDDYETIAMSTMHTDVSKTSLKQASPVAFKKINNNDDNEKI
How it was run: as §1

T1 sequence (P35372 whole entry): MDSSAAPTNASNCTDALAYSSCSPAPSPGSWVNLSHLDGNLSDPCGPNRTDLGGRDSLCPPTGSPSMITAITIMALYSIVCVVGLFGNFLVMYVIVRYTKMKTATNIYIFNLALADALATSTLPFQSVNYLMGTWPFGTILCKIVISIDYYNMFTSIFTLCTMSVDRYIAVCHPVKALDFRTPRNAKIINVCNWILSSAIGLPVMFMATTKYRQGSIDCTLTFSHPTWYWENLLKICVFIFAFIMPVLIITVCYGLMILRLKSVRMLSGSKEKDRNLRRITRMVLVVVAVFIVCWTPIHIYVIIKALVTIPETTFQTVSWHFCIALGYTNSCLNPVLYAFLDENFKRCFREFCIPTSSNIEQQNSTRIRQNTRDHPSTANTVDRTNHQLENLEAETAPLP

Compound: N=C(N)NCCC(=O)NC1C(OCc2ccc(Cl)cc2)OC(COCc2ccccc2)C(O)C1OCc1ccc2ccccc2c1 (stereo not shown) [compound 430]
- A7: inhibition of radioligand binding ([1]; human MOP membranes): − (“−” indicates less than 50% inhibition at 10 μM)
- A4: inhibition of radioligand binding ([2]; human MC4 membranes): + (“+” indicates greater than 50% inhibition at 10 μM)
- A8: inhibition of radioligand binding ([3]; human NK1 membranes): + (“+” indicates greater than 50% inhibition at 10 μM)
- A6: inhibition of radioligand binding ([4]; [125I]-S36057, human MCH1 membranes): + (“+” indicates greater than 50% inhibition at 10 μM)
- A3: inhibition of radioligand binding ([5]; human MC3 membranes): + (“+” indicates greater than 50% inhibition at 10 μM)
- A11: inhibition of radioligand binding ([6]; mouse mUR2 membranes): − (“−” indicates less than 50% inhibition at 10 μM)
- A5: inhibition of radioligand binding ([7]; human MC5 membranes): + (“+” indicates greater than 50% inhibition at 10 μM)
- A1: inhibition of radioligand binding ([8]; human DOP membranes): − (“−” indicates less than 50% inhibition at 10 μM)
- A2: inhibition of radioligand binding ([9]; human KOP membranes): − (“−” indicates less than 50% inhibition at 10 μM)
- A10: inhibition of radioligand binding ([10]; human ORL1 membranes): + (“+” indicates greater than 50% inhibition at 10 μM)
- A9: inhibition of radioligand binding ([11]; human NPY-Y1 membranes): − (“−” indicates less than 50% inhibition at 10 μM)

Compound: COCC1OC(OCCc2ccccc2)C(NC(=O)CCN)C(OCc2ccc(Cl)cc2)C1O (stereo not shown) [compound 221]
- A7: inhibition of radioligand binding ([1]; FlashPlate): − (“−” indicates less than 50% inhibition at 10 μM)
- A4: inhibition of radioligand binding ([2]; FlashPlate): − (“−” indicates less than 50% inhibition at 10 μM)
- A8: inhibition of radioligand binding ([3]; filtration): + (“+” indicates greater than 50% inhibition at 10 μM)
- A6: inhibition of radioligand binding ([4]; [125I]-S36057, FlashPlate): − (“−” indicates less than 50% inhibition at 10 μM)
- A3: inhibition of radioligand binding ([5]; FlashPlate): − (“−” indicates less than 50% inhibition at 10 μM)
- A11: inhibition of radioligand binding ([6]; FlashPlate): − (“−” indicates less than 50% inhibition at 10 μM)
- A5: inhibition of radioligand binding ([7]; FlashPlate): + (“+” indicates greater than 50% inhibition at 10 μM)
- A1: inhibition of radioligand binding ([8]; FlashPlate): − (“−” indicates less than 50% inhibition at 10 μM)
- A2: inhibition of radioligand binding ([9]; filtration): − (“−” indicates less than 50% inhibition at 10 μM)
- A10: inhibition of radioligand binding ([10]; FlashPlate): − (“−” indicates less than 50% inhibition at 10 μM)
- A9: inhibition of radioligand binding ([11]; FlashPlate): − (“−” indicates less than 50% inhibition at 10 μM)

Compound: CSC1OC(COCc2ccc3ccccc3c2)C(O)C(OCc2ccc3ccccc3c2)C1NC(=O)CCCN (stereo not shown) [compound 320]
- A7: inhibition of radioligand binding, human μ-opioid (MOP) [1]: − (“−” indicates less than 50% inhibition at 10 μM)
- A4: inhibition of radioligand binding, human melanocortin (MC4) [2]: − (“−” indicates less than 50% inhibition at 10 μM)
- A8: inhibition of radioligand binding, human neurokinin (NK1) [3]: + (“+” indicates greater than 50% inhibition at 10 μM)
- A6: inhibition of radioligand binding, human melanin-concentrating hormone (MCH1) [4]: − (“−” indicates less than 50% inhibition at 10 μM)
- A3: inhibition of radioligand binding, human melanocortin (MC3) [5]: − (“−” indicates less than 50% inhibition at 10 μM)
- A11: inhibition of radioligand binding, mouse urotensin (mUR2) [6]: − (“−” indicates less than 50% inhibition at 10 μM)
- A5: inhibition of radioligand binding, human melanocortin (MC5) [7]: + (“+” indicates greater than 50% inhibition at 10 μM)
- A1: inhibition of radioligand binding, human δ-opioid (DOP) [8]: − (“−” indicates less than 50% inhibition at 10 μM)
- A2: inhibition of radioligand binding, human κ-opioid (KOP) [9]: − (“−” indicates less than 50% inhibition at 10 μM)
- A10: inhibition of radioligand binding, human opioid (ORL1) [10]: − (“−” indicates less than 50% inhibition at 10 μM)
- A9: inhibition of radioligand binding, human neuropeptide Y (NPY-Y1) [11]: − (“−” indicates less than 50% inhibition at 10 μM)

Compound: CO[C@H]1[C@H](O)[C@@H](COCc2ccc(Cl)cc2)OC(OCc2ccc(-c3ccccc3)cc2)[C@@H]1NC(=O)CNC(=N)N (stereo partly shown) [compound 62]
- A7 radioligand binding inhibition ([1]; human μ-opioid (MOP) membranes): − (“−” indicates less than 50% inhibition at 10 μM)
- A4 radioligand binding inhibition ([2]; human melanocortin MC4 membranes): + (“+” indicates greater than 50% inhibition at 10 μM)
- A8 radioligand binding inhibition ([3]; human neurokinin NK1 membranes): + (“+” indicates greater than 50% inhibition at 10 μM)
- A6 radioligand binding inhibition ([4]; human MCH1 membranes): + (“+” indicates greater than 50% inhibition at 10 μM)
- A3 radioligand binding inhibition ([5]; human melanocortin MC3 membranes): + (“+” indicates greater than 50% inhibition at 10 μM)
- A11 radioligand binding inhibition ([6]; mouse urotensin mUR2 membranes): − (“−” indicates less than 50% inhibition at 10 μM)
- A5 radioligand binding inhibition ([7]; human melanocortin MC5 membranes): + (“+” indicates greater than 50% inhibition at 10 μM)
- A1 radioligand binding inhibition ([8]; human δ-opioid (DOP) membranes): − (“−” indicates less than 50% inhibition at 10 μM)
- A2 radioligand binding inhibition ([9]; human κ-opioid (KOP) membranes): − (“−” indicates less than 50% inhibition at 10 μM)
- A10 radioligand binding inhibition ([10]; human ORL1 membranes): + (“+” indicates greater than 50% inhibition at 10 μM)
- A9 radioligand binding inhibition ([11]; human NPY-Y1 membranes): − (“−” indicates less than 50% inhibition at 10 μM)

Compound: N=C(N)NCC(=O)N[C@H]1C(OCc2ccc(Cl)cc2)O[C@H](COCc2ccc3ccccc3c2)[C@@H](O)[C@@H]1OCc1ccc2ccccc2c1 (stereo partly shown) [compound 512]
- A7: inhibition of radioligand binding, human μ-opioid (MOP) [1]: + (“+” indicates greater than 50% inhibition at 10 μM)
- A4: inhibition of radioligand binding, human melanocortin (MC4) [2]: + (“+” indicates greater than 50% inhibition at 10 μM)
- A8: inhibition of radioligand binding, human neurokinin (NK1) [3]: + (“+” indicates greater than 50% inhibition at 10 μM)
- A6: inhibition of radioligand binding, human melanin-concentrating hormone (MCH1) [4]: + (“+” indicates greater than 50% inhibition at 10 μM)
- A3: inhibition of radioligand binding, human melanocortin (MC3) [5]: + (“+” indicates greater than 50% inhibition at 10 μM)
- A11: inhibition of radioligand binding, mouse urotensin (mUR2) [6]: − (“−” indicates less than 50% inhibition at 10 μM)
- A5: inhibition of radioligand binding, human melanocortin (MC5) [7]: + (“+” indicates greater than 50% inhibition at 10 μM)
- A1: inhibition of radioligand binding, human δ-opioid (DOP) [8]: − (“−” indicates less than 50% inhibition at 10 μM)
- A2: inhibition of radioligand binding, human κ-opioid (KOP) ([9]; 10 µM): − (“−” indicates less than 50% inhibition at 10 μM)
- A10: inhibition of radioligand binding, human opioid (ORL1) [10]: + (“+” indicates greater than 50% inhibition at 10 μM)
- A9: inhibition of radioligand binding, human neuropeptide Y (NPY-Y1) ([11]; 10 µM): − (“−” indicates less than 50% inhibition at 10 μM)
